Earlier results as cited in US6967090B2, “Nucleic acid and protein sequences of bovine epidermal growth factor” (Her Majesty the Queen in right of Canada, as represented by …, priority 2001, dated 2005).

Assays:
[1] = tested on: gastric acid secretion; settings: Hollenberg and Gregory 1980
[2] = molecular target: EGF receptor (Homo sapiens, UniProt P00533); settings: Tadaki and Niyogi, 1993
[3] = daily, 100 μg/kg body weight for nine days; U.S. Pat. No. 5,753,622
[4] = tested on: enteric infections; settings: oral administration; Buret et al., 1997
[5] = tested on: rotavirus; settings: piglets infected with rotavirus; Zijlstra et al., 1994
[6] = tested on: jejunal brush-border membranes; settings: rodent
[7] = tested on: gut cells; settings: piglet; WO 88/04180

## human EGF, lacking the last five amino acids on the COOH end: truncated human EGF lacking the last five amino acids on the COOH end (NSDSECPLSHDGYCLHDGVCMYIEALDKYACNCVVGYIGERCQYRDLK; not fully specified; Epidermal growth factor; UniProt P01133 971-1018, looked up, fragment)
[1]
  capacity to inhibit gastric acid secretion: retains its capacity to inhibit gastric acid secretion

## human EGF: human EGF variant with tyrosine replaced by phenylalanine at position 13 (NSDSECPLSHDGFCLHDGVCMYIEALDKYACNCVVGYIGERCQYRDLKWWELR; not fully specified; Epidermal growth factor; UniProt P01133 971-1023, looked up, variant Y13F)
[2]
  effect of substitution on binding to receptor: little effect on the binding

## EGF: 6 kDa polypeptide composed of 53 amino acids; species of origin not stated in the cited studies
[3]
  weight gain: enhances weight gain
[4]
  rate of enteric infections: reduces the rate of enteric infections
  reduction in weight gain caused by infection: prevents the reduction in weight gain caused by infection
[5]
  intestinal functions: improves intestinal functions
[6]
  electrolytes, glucose and proline transport: increases electrolytes, glucose and proline transport
[7]
  lactase and alkaline phosphatase activities: without any marked effect
  sucrase and maltase activity: enhancing both sucrase and maltase activity
